Data as given in US7470684B2, “Spiropiperidine derivatives as NK3 antagonists” (Hoffmann-La Roche Inc., priority 2007, dated 2008).
Where a name gives a salt, the structure may show the parent alone.

Biological target: T1, human NK3 receptor (Homo sapiens, UniProt P29371)
T1 construct: expressed in transfected cells; host or cells: HEK293 cells, transiently transfected; membranes
T1 sequence (P29371 1-465): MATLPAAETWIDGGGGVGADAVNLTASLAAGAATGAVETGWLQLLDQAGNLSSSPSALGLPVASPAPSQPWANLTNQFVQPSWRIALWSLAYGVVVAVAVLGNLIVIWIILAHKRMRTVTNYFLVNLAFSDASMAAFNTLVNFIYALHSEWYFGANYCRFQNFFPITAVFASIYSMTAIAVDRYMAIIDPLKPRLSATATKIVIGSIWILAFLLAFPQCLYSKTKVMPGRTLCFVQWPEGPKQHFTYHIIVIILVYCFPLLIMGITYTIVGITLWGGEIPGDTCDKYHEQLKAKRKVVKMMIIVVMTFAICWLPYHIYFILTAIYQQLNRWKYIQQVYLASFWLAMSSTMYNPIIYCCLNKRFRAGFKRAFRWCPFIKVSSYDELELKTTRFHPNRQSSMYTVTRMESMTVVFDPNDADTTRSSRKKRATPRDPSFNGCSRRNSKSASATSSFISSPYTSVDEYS
Assay: [3H]SR142801 competition binding assay
Conditions: not given
How it was run: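 Membranes from HEK293 cells transiently expressing human NK3 receptor incubated 75 min at RT with [3H]SR142801 at its KD and compound (0.0003-10 μM) in pH 7.4 Tris/MnCl2 buffer. Filtration and scintillation counting, nonspecific binding with 10 μM SB222200. IC50 from Hill fit, Ki by Cheng-Prusoff, duplicates.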

First: O=C1Nc2ccc(F)cc2C2(CCN(CCCC(C(=O)NCc3ccc(F)cc3)c3ccc(Cl)c(Cl)c3)CC2)O1 (centres unmarked) [Example 132, 2-(3,4-dichlorophenyl)-N-(4-fluorobenzyl)-5-(6-fluoro-2-oxo-1,2-dihydro-1′H-spiro[3,1-benzoxazine-4,4′-piperidin]-1′-yl)-pentanamide]
Second: CN(Cc1ccc(Cl)cc1)C(=O)[C@H](CCN1CCC2(CC1)OC(=O)N(C)c1ccc(F)cc12)c1ccc(Cl)c(Cl)c1 [Example 147, (2R)-N-(4-chlorobenzyl)-2-(3,4-dichlorophenyl)-4-(6-fluoro-1-methyl-2-oxo-1,2-dihydro-1′H-spiro[3,1-benzoxazine-4,4′-piperidin]-1′-yl)-N-methylbutanamide]
The Ki of the first is 36-fold higher: 65.7 nM for the first, 1.8 nM for the second. The second binds more tightly here.

Same assay, conditions: [3H]SR142801 displacement, membranes of HEK293 cells transiently expressing recombinant human NK3 receptor; read-out: hNK3 Ki

Compared with Cc1ccc(CN(C)C(=O)C(CCN2CCC3(CC2)OC(=O)N(C)c2ccc(F)cc23)c2ccc(Cl)c(Cl)c2)cc1 (centres unmarked) [Example 102, 2-(3,4-dichlorophenyl)-4-(6-fluoro-1-methyl-2-oxo-1,2-dihydro-1′H-spiro[3,1-benzoxazine-4,4′-piperidin]-1′-yl)-N-methyl-N-(4-methylbenzyl)butanamide], CN1C(=O)OC2(CCN(CCC(C(=O)NCc3ccc(-c4csnn4)cc3)c3ccc(Cl)c(Cl)c3)CC2)c2cc(F)ccc21 (centres unmarked) [Example 109, 2-(3,4-dichlorophenyl)-4-(6-fluoro-1-methyl-2-oxo-1,2-dihydro-1′H-spiro[3,1-benzoxazine-4,4′-piperidin]-1′-yl)-N-[4-(1,2,3-thiadiazol-4-yl)benzyl]butanamide] is 9-fold higher in Ki: 2.1 nM for the first, 19 nM for the second.

Cc1ccsc1CNC(=O)C(CCCN1CCC2(CC1)OC(=O)Nc1ccc(F)cc12)c1ccc(Cl)c(Cl)c1 (centres unmarked) [Example 116, 2-(3,4-dichlorophenyl)-5-(6-fluoro-2-oxo-1,2-dihydro-1′H-spiro[3,1-benzoxazine-4,4′-piperidin]-1′-yl)-N-[(3-methyl-2-thienyl)methyl]pentanamide] and O=C1Nc2ccc(F)cc2C2(CCN(CCCC(C(=O)NCc3ccc(C(F)(F)F)cc3)c3ccc(Cl)c(Cl)c3)CC2)O1 (centres unmarked) [Example 135, 2-(3,4-dichlorophenyl)-5-(6-fluoro-2-oxo-1,2-dihydro-1′H-spiro[3,1-benzoxazine-4,4′-piperidin]-1′-yl)-N-[4-(trifluoromethyl)benzyl]pentanamide] are within 1.5-fold of each other in Ki: 66.8 nM for the first, 90.3 nM for the second.

Same assay, conditions: hNK3 Ki, [3H]SR142801 displacement, membranes of HEK293 cells transiently expressing recombinant human NK3 receptor

CN(Cc1cccc(F)c1)C(=O)C(CCN1CCC2(CC1)OC(=O)N(C)c1ccc(F)cc12)c1ccc(Cl)c(Cl)c1 (centres unmarked) [Example 101, 2-(3,4-dichlorophenyl)-N-(3-fluorobenzyl)-4-(6-fluoro-1-methyl-2-oxo-1,2-dihydro-1′H-spiro[3,1-benzoxazine-4,4′-piperidin]-1′-yl)-N-methyl-butanamide] and CN(Cc1ccc(F)cc1)C(=O)C(CCN1CCC2(CC1)OC(=O)N(C)c1ccc(F)cc12)c1ccc(Cl)c(Cl)c1 (centres unmarked) [Example 105, 2-(3,4-dichlorophenyl)-N-(4-fluorobenzyl)-4-(6-fluoro-1-methyl-2-oxo-1,2-dihydro-1′H-spiro[3,1-benzoxazine-4,4′-piperidin]-1′-yl)-N-methyl-butanamide] are within 1.5-fold of each other in Ki: 1.3 nM for the first, 1 nM for the second.

CN1C(=O)OC2(CCN(CCC(C(=O)NCc3cccc(OC(F)(F)F)c3)c3ccc(Cl)c(Cl)c3)CC2)c2cc(F)ccc21 (centres unmarked) [Example 103, 2-(3,4-dichlorophenyl)-4-(6-fluoro-1-methyl-2-oxo-1,2-dihydro-1′H-spiro[3,1-benzoxazine-4,4′-piperidin]-1′-yl)-N-[3-(trifluoromethoxy)benzyl]butanamide] and CN1C(=O)OC2(CCN(CCC(C(=O)NCc3cccc(C(F)(F)F)c3)c3ccc(Cl)c(Cl)c3)CC2)c2cc(F)ccc21 (centres unmarked) [Example 108, 2-(3,4-dichlorophenyl)-4-(6-fluoro-1-methyl-2-oxo-1,2-dihydro-1′H-spiro[3,1-benzoxazine-4,4′-piperidin]-1′-yl)-N-[3-(trifluoromethyl)benzyl]butanamide] are within 1.5-fold of each other in Ki: 3.7 nM for the first, 3 nM for the second.

Going from CN(Cc1cccc(C(F)(F)F)c1)C(=O)C(CCN1CCC2(CC1)OC(=O)N(C)c1ccc(F)cc12)c1ccc(Cl)c(Cl)c1 (centres unmarked) [Example 104, 2-(3,4-dichlorophenyl)-4-(6-fluoro-1-methyl-2-oxo-1,2-dihydro-1′H-spiro[3,1-benzoxazine-4,4′-piperidin]-1′-yl)-N-methyl-N-[3-(trifluoromethyl)benzyl]butanamide] to CN(Cc1cccc(C(F)(F)F)c1)C(=O)C(CCCN1CCC2(CC1)OC(=O)Nc1ccc(F)cc12)c1ccc(Cl)c(Cl)c1 (centres unmarked) [Example 130, 2-(3,4-dichlorophenyl)-5-(6-fluoro-2-oxo-1,2-dihydro-1′H-spiro[3,1-benzoxazine-4,4′-piperidin]-1′-yl)-N-methyl-N-[3-(trifluoromethyl)benzyl]pentanamide], the Ki rises from 1.6 nM to 91.9 nM (57-fold). The first binds more tightly here.

First: CN1C(=O)OC2(CCN(CCC(C(=O)NCc3ccc(F)cc3)c3ccc(Cl)c(Cl)c3)CC2)c2cc(F)ccc21 (centres unmarked) [Example 106, 2-(3,4-dichlorophenyl)-N-(4-fluorobenzyl)-4-(6-fluoro-1-methyl-2-oxo-1,2-dihydro-1′H-spiro[3,1-benzoxazine-4,4′-piperidin]-1′-yl)-butanamide]
Second: COc1ccc(CNC(=O)C(CCN2CCC3(CC2)OC(=O)N(C)c2ccc(F)cc23)c2ccc(Cl)c(Cl)c2)cc1 (centres unmarked) [Example 107, 2-(3,4-dichlorophenyl)-4-(6-fluoro-1-methyl-2-oxo-1,2-dihydro-1′H-spiro[3,1-benzoxazine-4,4′-piperidin]-1′-yl)-N-(4-methoxybenzyl)butanamide]
The Ki of the first is 2-fold lower: 2.7 nM for the first, 5.4 nM for the second.

CN1C(=O)OC2(CCN(CCC(C(=O)NCc3ccc(OC(F)(F)F)cc3)c3ccc(Cl)c(Cl)c3)CC2)c2cc(F)ccc21 (centres unmarked) [Example 110, 2-(3,4-dichlorophenyl)-4-(6-fluoro-1-methyl-2-oxo-1,2-dihydro-1′H-spiro[3,1-benzoxazine-4,4′-piperidin]-1′-yl)-N-[4-(trifluoromethoxy)benzyl]butanamide] and CN1C(=O)OC2(CCN(CCC(C(=O)NCc3ccc(C#N)cc3)c3ccc(Cl)c(Cl)c3)CC2)c2cc(F)ccc21 (centres unmarked) [Example 111, N-(4-cyanobenzyl)-2-(3,4-dichlorophenyl)-4-(6-fluoro-1-methyl-2-oxo-1,2-dihydro-1′H-spiro[3,1-benzoxazine-4,4′-piperidin]-1′-yl)butanamide] are within 1.5-fold of each other in Ki: 3.2 nM for the first, 3.1 nM for the second.

Going from O=C1Nc2ccc(F)cc2C2(CCN(CCCC(C(=O)NCc3ccccc3OC(F)(F)F)c3ccc(Cl)c(Cl)c3)CC2)O1 (centres unmarked) [Example 118, 2-(3,4-dichlorophenyl)-5-(6-fluoro-2-oxo-1,2-dihydro-1′H-spiro[3,1-benzoxazine-4,4′-piperidin]-1′-yl)-N-[2-(trifluoromethoxy)benzyl]pentanamide] to O=C1Nc2ccc(F)cc2C2(CCN(CCCC(C(=O)NCc3ccc(Cl)cc3)c3ccc(Cl)c(Cl)c3)CC2)O1 (centres unmarked) [Example 125, N-(4-chlorobenzyl)-2-(3,4-dichlorophenyl)-5-(6-fluoro-2-oxo-1,2-dihydro-1′H-spiro[3,1-benzoxazine-4,4′-piperidin]-1′-yl)pentanamide], the Ki rises from 64.4 nM to 98.3 nM (1.5-fold).

CN(Cc1ccc(Cl)cc1)C(=O)C(CCCN1CCC2(CC1)OC(=O)Nc1ccc(F)cc12)c1ccc(Cl)c(Cl)c1 (centres unmarked) [Example 120, N-(4-chlorobenzyl)-2-(3,4-dichlorophenyl)-5-(6-fluoro-2-oxo-1,2-dihydro-1′H-spiro[3,1-benzoxazine-4,4′-piperidin]-1′-yl)-N-methylpentanamide] and CN(Cc1ccc(F)cc1)C(=O)C(CCCN1CCC2(CC1)OC(=O)Nc1ccc(F)cc12)c1ccc(Cl)c(Cl)c1 (centres unmarked) [Example 131, 2-(3,4-dichlorophenyl)-N-(4-fluorobenzyl)-5-(6-fluoro-2-oxo-1,2-dihydro-1′H-spiro[3,1-benzoxazine-4,4′-piperidin]-1′-yl)-N-methylpentanamide] are within 1.5-fold of each other in Ki: 46.3 nM for the first, 69.2 nM for the second.

CN(Cc1ccc(C(F)(F)F)cc1)C(=O)C(CCCN1CCC2(CC1)OC(=O)Nc1ccc(F)cc12)c1ccc(Cl)c(Cl)c1 (centres unmarked) [Example 121, 2-(3,4-dichlorophenyl)-5-(6-fluoro-2-oxo-1,2-dihydro-1′H-spiro[3,1-benzoxazine-4,4′-piperidin]-1′-yl)-N-methyl-N-[4-(trifluoromethyl)benzyl]pentanamide] and Cc1ccc(CN(C)C(=O)C(CCCN2CCC3(CC2)OC(=O)Nc2ccc(F)cc23)c2ccc(Cl)c(Cl)c2)cc1 (centres unmarked) [Example 138, 2-(3,4-dichlorophenyl)-5-(6-fluoro-2-oxo-1,2-dihydro-1′H-spiro[3,1-benzoxazine-4,4′-piperidin]-1′-yl)-N-methyl-N-(4-methylbenzyl)pentanamide] are within 1.5-fold of each other in Ki: 64.7 nM for the first, 95.4 nM for the second.

C[C@H](NC(=O)[C@H](CCN1CCC2(CC1)OC(=O)Nc1ccc(F)cc12)c1ccc(Cl)c(Cl)c1)c1ccccc1 [Example 146, (2R)-2-(3,4-dichlorophenyl)-4-(6-fluoro-2-oxo-1,2-dihydro-1′H-spiro[3,1-benzoxazine-4,4′-piperidin]-1′-yl)-N-[(1S)-1-phenylethyl]butanamidehydrochloride] was tested, and the Ki was 5.7 nM.
